Reference: ChEMBL document CHEMBL1201862, “PubChem BioAssay data set” (2004)
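48-hour exposure; five concentrations; linearly interpolated endpoints. The concentration for 50% growth inhibition is given as GI50.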 The source made the active and inactive calls. Cut-off read from the data, not from the text of the source: active = GI50 up to about 1.1 µM and inactive = higher.

Tests used:
Test in all cases: inhibition of tumour cell growth, NCI panel, 48 h
786-0 = tested on: 786-0
A498 = tested on: A498
A549 = tested on: A549
ACHN = tested on: ACHN
CAKI-1 = tested on: CAKI-1
CCRF-CEM = tested on: CCRF-CEM
COLO 205 = tested on: COLO 205
DLD-1 = tested on: DLD-1
DMS-114 = tested on: DMS-114
DMS-273 = tested on: DMS-273
EKVX = tested on: EKVX
HCC 2998 = tested on: HCC 2998
HCT-116 = tested on: HCT-116
HCT-15 = tested on: HCT-15
HL-60 = tested on: HL-60
HOP-18 = tested on: HOP-18
HOP-62 = tested on: HOP-62
HOP-92 = tested on: HOP-92
HT-29 = tested on: HT-29
IGROV-1 = tested on: IGROV-1
K562 = tested on: K562
KM-20L2 = tested on: KM-20L2
KM12 = tested on: KM12
LOX IMVI = tested on: LOX IMVI
LXFL 529 = tested on: LXFL 529
M14 = tested on: M14
M19-MEL = tested on: M19-MEL
MOLT-4 = tested on: MOLT-4
Malme-3M = tested on: Malme-3M
NCI-H226 = tested on: NCI-H226
NCI-H23 = tested on: NCI-H23
NCI-H460 = tested on: NCI-H460
NCI-H522 = tested on: NCI-H522
OVCAR-3 = tested on: OVCAR-3
OVCAR-4 = tested on: OVCAR-4
OVCAR-5 = tested on: OVCAR-5
OVCAR-8 = tested on: OVCAR-8
RPMI-8226 = tested on: RPMI-8226
RXF 393 = tested on: RXF 393
SF-268 = tested on: SF-268
SF-295 = tested on: SF-295
SF-539 = tested on: SF-539
SK-MEL-28 = tested on: SK-MEL-28
SK-MEL-2 = tested on: SK-MEL-2
SK-MEL-5 = tested on: SK-MEL-5
SK-OV-3 = tested on: SK-OV-3
SN12C = tested on: SN12C
SNB-19 = tested on: SNB-19
SNB-75 = tested on: SNB-75
SNB-78 = tested on: SNB-78
SW-620 = tested on: SW-620
TK-10 = tested on: TK-10
U-251 = tested on: U-251
UACC-257 = tested on: UACC-257
UACC-62 = tested on: UACC-62
UO-31 = tested on: UO-31

Structure (SMILES): O=C1NC(=O)c2c1n(Cc1ccccc1)c(=O)n2Cc1ccccc1
- GI50 (786-0): > 100 µM (inactive)
- GI50 (A498): 30.4 µM (inactive)
- GI50 (A549): > 100 µM (inactive)
- GI50 (ACHN): > 100 µM (inactive)
- GI50 (CAKI-1): > 100 µM (inactive)
- GI50 (CCRF-CEM): > 100 µM (inactive)
- GI50 (COLO 205): > 100 µM (inactive)
- GI50 (DLD-1): > 100 µM (inactive)
- GI50 (DMS-114): > 100 µM (inactive)
- GI50 (DMS-273): > 100 µM (inactive)
- GI50 (EKVX): > 100 µM (inactive)
- GI50 (HCC 2998): > 100 µM (inactive)
- GI50 (HCT-116): > 100 µM (inactive)
- GI50 (HCT-15): 77.8 µM
- GI50 (HL-60): 87.7 µM (inactive)
- GI50 (HOP-18): > 100 µM (inactive)
- GI50 (HOP-62): > 100 µM (inactive)
- GI50 (HOP-92): 25.8 µM (inactive)
- GI50 (HT-29): > 100 µM (inactive)
- GI50 (IGROV-1): > 100 µM (inactive)
- GI50 (K562): 35.8 µM (inactive)
- GI50 (KM-20L2): > 100 µM (inactive)
- GI50 (KM12): > 100 µM (inactive)
- GI50 (LOX IMVI): > 100 µM (inactive)
- GI50 (LXFL 529): > 100 µM (inactive)
- GI50 (M14): > 100 µM (inactive)
- GI50 (M19-MEL): > 100 µM (inactive)
- GI50 (MOLT-4): > 100 µM (inactive)
- GI50 (Malme-3M): > 100 µM (inactive)
- GI50 (NCI-H226): > 100 µM (inactive)
- GI50 (NCI-H23): > 100 µM (inactive)
- GI50 (NCI-H460): 86.7 µM (inactive)
- GI50 (NCI-H522): > 100 µM (inactive)
- GI50 (OVCAR-3): > 100 µM (inactive)
- GI50 (OVCAR-4): > 100 µM (inactive)
- GI50 (OVCAR-5): > 100 µM (inactive)
- GI50 (OVCAR-8): > 100 µM (inactive)
- GI50 (RPMI-8226): 53.2 µM (inactive)
- GI50 (RXF 393): > 100 µM (inactive)
- GI50 (SF-268): > 100 µM (inactive)
- GI50 (SF-295): > 100 µM (inactive)
- GI50 (SF-539): 36 µM (inactive)
- GI50 (SK-MEL-28): > 100 µM (inactive)
- GI50 (SK-MEL-2): > 100 µM (inactive)
- GI50 (SK-MEL-5): > 100 µM (inactive)
- GI50 (SK-OV-3): > 100 µM (inactive)
- GI50 (SN12C): > 100 µM (inactive)
- GI50 (SNB-19): > 100 µM (inactive)
- GI50 (SNB-75): > 100 µM (inactive)
- GI50 (SNB-78): > 100 µM (inactive)
- GI50 (SW-620): > 100 µM (inactive)
- GI50 (TK-10): 96.6 µM (inactive)
- GI50 (U-251): > 100 µM (inactive)
- GI50 (UACC-257): > 100 µM (inactive)
- GI50 (UACC-62): 84.3 µM (inactive)
- GI50 (UO-31): > 100 µM (inactive)
